Results taken from ChEMBL document CHEMBL5113484, “Synthesis and biological evaluation of novel pentanediamide derivatives as S-adenosyl-l-homocysteine hydrolase inhibitors” (Bioorg Med Chem Lett, 2022).

Assays:
[1] = test system: MCF7; assay: Cytotoxicity against human MCF7 cells assessed as cell growth inhibition; assay type: functional, cell-based
[2] = test system: MGC-803; assay: Cytotoxicity against human MGC-803 cells assessed as cell growth inhibition; assay type: functional, cell-based
[3] = target: Adenosylhomocysteinase (Homo sapiens, UniProt P23526); assay: Inhibition of SAH hydrolase (unknown origin)
Chain of Adenosylhomocysteinase (P23526 whole entry): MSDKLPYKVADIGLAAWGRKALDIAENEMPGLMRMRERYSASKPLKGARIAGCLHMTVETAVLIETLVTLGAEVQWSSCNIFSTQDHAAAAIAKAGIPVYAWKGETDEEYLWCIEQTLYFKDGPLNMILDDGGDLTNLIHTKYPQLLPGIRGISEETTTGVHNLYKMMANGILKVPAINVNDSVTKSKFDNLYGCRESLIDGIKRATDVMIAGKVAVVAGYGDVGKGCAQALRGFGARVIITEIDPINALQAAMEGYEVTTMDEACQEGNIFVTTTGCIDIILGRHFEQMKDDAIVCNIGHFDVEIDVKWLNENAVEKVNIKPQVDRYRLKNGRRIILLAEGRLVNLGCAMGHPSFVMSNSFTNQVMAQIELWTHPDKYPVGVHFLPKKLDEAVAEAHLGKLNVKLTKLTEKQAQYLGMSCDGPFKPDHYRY

[4] = test system: L02; assay: Cytotoxicity against human L02 cells assessed as cell growth inhibition; assay type: functional, cell-based
[5] = test system: A549; assay: Cytotoxicity against human A549 cells assessed as cell growth inhibition; assay type: functional, cell-based
[6] = test system: HeLa; assay: Cytotoxicity against human HeLa cells assessed as cell growth inhibition; assay type: functional, cell-based
[7] = Cytotoxicity against African green monkey Vero cells assessed as cell growth inhibition; assay type: toxicity, cell-based; conditions: chlorocebus sabaeus
[8] = test system: Vesicular stomatitis virus; assay: Antiviral activity against Vesicular stomatitis virus assessed as viral growth inhibition; assay type: functional, organism-based
[9] = test system: Respiratory syncytial virus; assay: Antiviral activity against Respiratory syncytial virus assessed as viral growth inhibition; assay type: functional, organism-based; conditions: human respiratory syncytial virus
[10] = Selectivity index, ratio of CC50 for cytotoxicity against African green monkey Vero cells to EC50 for antiviral activity against Respiratory syncytial virus; assay type: toxicity, cell-based; conditions: read-out: Ratio CC50/EC50
[11] = Selectivity index, ratio of CC50 for cytotoxicity against African green monkey Vero cells to EC50 for antiviral activity against Vesicular stomatitis virus; assay type: toxicity, cell-based; conditions: read-out: Ratio CC50/EC50

With `Nc1nccc2c1ncn2[C@@H]1O[C@H](CO)[C@@H](O)[C@H]1O` the IC50 [1] was 40.3 µM, the IC50 [2] was 41.1 µM and the IC50 [3] was 5.39 µM. It also gave an IC50 [4] of 94.4 µM and an IC50 [5] of 57.4 µM.
`CCNCCNC(=O)CC(CC(=O)NC1Cc2ccccc2C1)c1ccccc1` (stereo not given) gave an IC50 [1] of over 100 µM, an IC50 [2] of over 100 µM and an IC50 [6] of over 100 µM. The IC50 [4] was over 100 µM and the IC50 [5] was over 100 µM.
`CCNCCNC(=O)CC(CC(=O)N(CC)C1Cc2ccccc2C1)c1ccccc1` (stereo not given) showed an IC50 [1] of over 100 µM, an IC50 [2] of over 100 µM and an IC50 [3] of 3.48 µM. The IC50 [6] was over 100 µM, the IC50 [4] was over 100 µM and the IC50 [5] was over 100 µM.
Compound `CCN(CC)CCNC(=O)CC(CC(=O)NC1Cc2ccccc2C1)c1ccc(Cl)cc1` (stereo not given) has an IC50 [1] of 75 µM, an IC50 [2] of over 100 µM and an IC50 [3] of 3.68 µM. For the same compound, the IC50 [6] was 50.5 µM, the IC50 [4] was 76.7 µM and the IC50 [5] was 48.6 µM.
For `O=C(CC(CC(=O)NC1Cc2ccccc2C1)c1ccc(Cl)cc1)NCCN1CCCCC1` (stereo not given), the IC50 [1] was 35.5 µM, the IC50 [2] was 89.1 µM and the IC50 [6] was 86.2 µM. It also gave an IC50 [4] of 70.4 µM and an IC50 [5] of 28 µM.
With `CN(C(=O)CC(CC(=O)NCCN1CCCC1)c1ccccc1)C1Cc2ccccc2C1` (stereo not given) the IC50 [1] was over 100 µM, the IC50 [2] was over 100 µM and the IC50 [6] was over 100 µM. For the same compound, the IC50 [4] was over 100 µM and the IC50 [5] was over 100 µM.
With `CCNCCNC(=O)CC(CC(=O)N(CC)C1Cc2ccccc2C1)c1ccc(Cl)cc1` (stereo not given) the CC50 [7] was 144 µM, the IC50 [1] was 14.4 µM and the EC50 [8] was over 100 µM. The IC50 [2] was 43.8 µM, the IC50 [3] was 3.78 µM and the IC50 [6] was 40.5 µM. It also gave an EC50 [9] of over 100 µM, an IC50 [4] of 66.2 µM and an IC50 [5] of 19.4 µM.
With `CCN(CC)CCNC(=O)CC(CC(=O)NC1Cc2ccccc2C1)c1ccccc1` (stereo not given) the IC50 [1] was over 100 µM, the IC50 [2] was over 100 µM and the IC50 [6] was over 100 µM. The IC50 [4] was over 100 µM and the IC50 [5] was 82.4 µM.
`CCN(C(=O)CC(CC(=O)NCCN1CCCC1)c1ccccc1)C1Cc2ccccc2C1` (stereo not given) showed an IC50 [1] of over 100 µM, an IC50 [2] of over 100 µM and an IC50 [6] of over 100 µM. For the same compound, the IC50 [4] was over 100 µM and the IC50 [5] was over 100 µM.
For `Cc1ccc(C(CC(=O)NCCN2CCCCC2)CC(=O)NC2Cc3ccccc3C2)cc1` (stereo not given), the IC50 [1] was over 100 µM, the IC50 [2] was over 100 µM and the IC50 [6] was over 100 µM. For the same compound, the IC50 [4] was over 100 µM and the IC50 [5] was over 100 µM.
In the case of `CCN(C(=O)CC(CC(=O)NCCN1CCCC1)c1ccc(Cl)cc1)C1Cc2ccccc2C1` (stereo not given), the IC50 [1] is reported as 20.4 µM, the IC50 [2] is reported as 55.5 µM and the IC50 [6] is reported as 36.4 µM. For the same compound, the IC50 [4] was 54.2 µM and the IC50 [5] was 22.6 µM.
For `CCN(C(=O)CC(CC(=O)NCCN1CCCCC1)c1ccccc1)C1Cc2ccccc2C1` (stereo not given), the IC50 [1] was over 100 µM, the IC50 [2] was over 100 µM and the IC50 [6] was over 100 µM. The IC50 [4] was over 100 µM and the IC50 [5] was 84.5 µM.
`O=C(CC(CC(=O)NC1Cc2ccccc2C1)c1ccccc1)NCCN1CCCCC1` (stereo not given) showed an IC50 [1] of over 100 µM, an IC50 [2] of over 100 µM and an IC50 [6] of over 100 µM. For the same compound, the IC50 [4] was over 100 µM and the IC50 [5] was over 100 µM.
Compound `CN(C(=O)CC(CC(=O)NCCN1CCCC1)c1ccc(Cl)cc1)C1Cc2ccccc2C1` (stereo not given) has an IC50 [1] of 76.7 µM, an IC50 [2] of 83.8 µM and an IC50 [6] of 55.4 µM. The IC50 [4] was 81.5 µM and the IC50 [5] was 56 µM.
Work on `CCN(CC)CCNC(=O)CC(CC(=O)N(C)C1Cc2ccccc2C1)c1ccc(Cl)cc1` (stereo not given) yielded an IC50 [1] of 28.8 µM, an IC50 [2] of 81.2 µM and an IC50 [6] of 48.1 µM. For the same compound, the IC50 [4] was 56.5 µM and the IC50 [5] was 21.4 µM.
Compound `O=C(CC(CC(=O)NC1Cc2ccccc2C1)c1ccccc1)NCCN1CCCC1` (stereo not given) has an IC50 [1] of over 100 µM, an IC50 [2] of over 100 µM and an IC50 [6] of over 100 µM. For the same compound, the IC50 [4] was over 100 µM and the IC50 [5] was over 100 µM.
With `CCNCCNC(=O)CC(CC(=O)NC1Cc2ccccc2C1)c1ccc(Cl)cc1` (stereo not given) the IC50 [1] was over 100 µM, the IC50 [2] was over 100 µM and the IC50 [6] was 68.4 µM. It also gave an IC50 [4] of 83.7 µM and an IC50 [5] of 52 µM.
With `CCN(CC)CCNC(=O)CC(CC(=O)N(CC)C1Cc2ccccc2C1)c1ccc(Cl)cc1` (stereo not given) the CC50 [7] was 91.8 µM, the IC50 [1] was 23 µM and the EC50 [8] was 38.9 µM. For the same compound, the selectivity ratio [10] was 1.01, the IC50 [2] was 44.9 µM and the IC50 [3] was 3.72 µM. For the same compound, the IC50 [6] was 24.3 µM, the selectivity ratio [11] was 2.36 and the EC50 [9] was 91.1 µM. For the same compound, the IC50 [4] was 78.4 µM and the IC50 [5] was 18.4 µM.
`CNCCNC(=O)CC(CC(=O)NC1Cc2ccccc2C1)c1ccc(Cl)cc1` (stereo not given) gave an IC50 [1] of over 100 µM, an IC50 [2] of over 100 µM and an IC50 [6] of over 100 µM. It also gave an IC50 [4] of over 100 µM and an IC50 [5] of over 100 µM.
`CCN(C(=O)CC(CC(=O)NCCN1CCCCC1)c1ccc(Cl)cc1)C1Cc2ccccc2C1` (stereo not given) gave a CC50 [7] of 187 µM, an IC50 [1] of 16.5 µM and an EC50 [8] of over 100 µM. The selectivity ratio [10] was 6.84, the IC50 [2] was 21.2 µM and the IC50 [3] was 3.58 µM. For the same compound, the IC50 [6] was 20.4 µM, the EC50 [9] was 27.4 µM and the IC50 [4] was 84.2 µM. It also gave an IC50 [5] of 13.2 µM.
In the case of `CCN(CC)CCNC(=O)CC(CC(=O)N(C)C1Cc2ccccc2C1)c1ccccc1` (stereo not given), the IC50 [1] is reported as over 100 µM, the IC50 [2] is reported as over 100 µM and the IC50 [6] is reported as over 100 µM. It also gave an IC50 [4] of over 100 µM and an IC50 [5] of over 100 µM.
With `O=C(CC(CC(=O)NC1Cc2ccccc2C1)c1ccc(Cl)cc1)NCCN1CCCC1` (stereo not given) the IC50 [1] was over 100 µM, the IC50 [2] was over 100 µM and the IC50 [6] was 77.3 µM. For the same compound, the IC50 [4] was 89.4 µM and the IC50 [5] was 50.9 µM.
For `O=c1[nH]cc(F)c(=O)[nH]1` [FLUOROURACIL], the IC50 [1] was 48.5 µM, the IC50 [2] was 38.5 µM and the IC50 [4] was 46.5 µM.
